By logD is commonly meant lipophilicity at a set pH, counting ionised and neutral species. Read a low logD as a more hydrophilic compound.

A short description of this series: physchem. Particulars: octan-1-ol/water, pH 7.4, LogD7.4.

Each structure is given as a SMILES string.

As to `C#CCN(c1cc(Nc2ccc(OCC(O)CN(C)C)cc2)ncn1)c1cc(Cl)ccc1Cl` (configuration not stated), the pH-dependent lipophilicity (logD) came out at 2.8.

For the compound `Brc1cc(Br)cc(COC[C@H](c2ccccc2)N2CCNCC2)c1`, the logD came out at 2.8.

On to `O=S(=O)(Cc1ccccc1)NCC(c1ccccc1)N1CCCCCC1` (configuration not stated), for which the logD was determined as 2.83.

Turning to `Cc1cc2n[nH]c(=O)n2c2cc(-c3ccc(C(=O)N4CCOCC4)cc3)ccc12`, the logD was found to be 2.77. The logD values of the last two compounds are within 0.2 log units of each other.

Regarding `Cc1c(-c2ccc(O)cc2)c(=O)oc2cc(O)ccc12`, the logD was 2.8.

`CC1(c2ccc(Cl)cc2)CCN(C(=O)COCc2ccncc2)CC1` had a log distribution coefficient (logD) of 2.79.

Take `COc1ccc(-c2coc3cc(O)cc(O)c3c2=O)cc1OC`: the logD was 2.8. The logD values of the last two compounds are within 0.2 log units of each other.

For `CC(O)(C(=O)Nc1ccc(S(=O)(=O)c2ccc(O)cc2)cc1)C(F)(F)F` (configuration not stated), the logD worked out at 2.78.

In turn, `Cc1ccc(S(=O)(=O)Nc2ccc(/C=C/C(=O)Nc3ccccc3N)cc2)cc1` gave a logD of 2.82. This logD and that of the compound before are within 0.2 log units of each other.

For the compound `N#Cc1cccc(COc2ccc3c(c2)OCCC3=O)c1`, the logD is 2.8.

In the case of `CC(=O)N1CCOc2cc(COc3ccccc3)cnc21`, the log distribution coefficient (logD) is 2.8.

With `O=c1oc2c(O)cccc2cc1-c1ccc(O)cc1`, the logD came out at 2.8.

`Cc1cccc(Cn2ccn3c(=O)cc(N4CCOCC4)nc23)c1`: the logD worked out at 2.8.

In turn, `Cc1ccc(-c2c[nH]cn2)cc1NC(=O)c1ccc(OCc2ccccn2)cc1` showed a logD of 2.81. This logD and that of the compound before are within 0.2 log units of each other.

Turning to `Cc1ccc(-c2nccn2C)cc1NC(=O)c1ccc(OCc2ccccn2)cc1`, the logD was found to be 2.83. The logD values of the last two compounds are within 0.2 log units of each other.

The compound `Cc1cc(Nc2nc(NCc3ccccn3)ncc2Br)n[nH]1` had a logD of 2.8.

Take `Nc1ncc(-c2ccc(S(=O)(=O)N3CCOCC3)cc2)nc1C(=O)Nc1cccnc1`: the logD was 2.83. The logD values of the last two compounds are within 0.2 log units of each other.

With `CNS(=O)(=O)c1ccc2c(C(=O)NC[C@@H](O)CN3CCC(Oc4ccc(Cl)c(Cl)c4)CC3)c[nH]c(=O)c2c1`, the logD worked out at 2.77.

For `Cc1c(Cl)ccc(OC2CCN(C[C@H](O)CNC(=O)c3c[nH]c(=O)c4cc(S(C)(=O)=O)ccc34)CC2)c1Cl`, the logD came out at 2.83.

With `Nc1cccc(CCc2ccc3cc[nH]c3c2)n1`, the logD stood at 2.8. The logD values of the last two compounds are within 0.2 log units of each other.

With `COCCC(=O)Nc1ccc(Nc2ncc3cc(-c4ccncc4)ccc3n2)cc1`, the logD was 2.78.

Compound `COc1ccc(-c2ccc3c(N4CCOC[C@@H]4C)nc(N4CCOC[C@@H]4C)nc3n2)cc1C(N)=O` showed a logD of 2.82.

`CCOC(=O)[C@H](Cc1ccc([N+](=O)[O-])cc1)NC(=O)c1ccccc1` showed a logD of 2.79.

Take `CN1CCc2c1nc1ccccc1c2NC(=O)Cc1ccccc1`: the logD came out at 2.8.

Consider `CNC(=O)C1(N2CCCCC2=O)CCN(CC[C@H](CN(C)C(=O)c2c(OC)c(C#N)cc3ccccc23)c2ccc(Cl)c(Cl)c2)CC1`, for which the logD amounted to 2.78.

As to `CCCc1c(OCc2ccc(-c3nn[nH]n3)cc2OC)ccc(C(C)=O)c1O`, the logD is 2.8. This logD and that of the compound before are within 0.2 log units of each other.

The compound `Cc1ccc(NC(=O)c2cccc(N(C)C)c2)cc1NC(=O)c1ccc(OCc2ccccn2)cc1` showed a logD of 2.83.

As to `O=[N+]([O-])c1ccc2[nH]c(-c3ccccn3)nc2c1`, the pH-dependent lipophilicity (logD) stood at 2.8.

Take `C[C@@H](O)[C@@H](CO)Nc1nc(SCc2cccc(F)c2F)nc2nc(N)sc12`: the logD was 2.83.

Take `CC(C)C[C@@H](CO)NS(=O)(=O)c1ccc(Cl)s1`: the logD is 2.8.

In the case of `Cc1ncc(-c2nc(Nc3ccc(C(=O)N(C)C)cc3)ncc2F)n1C(C)C`, the logD came out at 2.77.

Compound `Cc1ncc(-c2ccnc(Nc3ccc(C(N)=O)c(F)c3)n2)n1C(C)C` gave a logD of 2.8.

`CCCC(=O)Nc1ccc2c(c1)C(=O)C(=O)c1ccccc1-2` gave a logD of 2.81. The logD values of the last two compounds are within 0.2 log units of each other.

`CC(C)(C)C(=O)Nc1ccc2c(c1)C(=O)C(=O)c1ccccc1-2` showed a logD of 2.83.

Compound `Cc1ccc(NC(=O)c2cccc(OCC(C)C)c2)cc1C(=O)Nc1cccnc1` displayed a logD of 2.81.

The compound `COc1cc2ncc(C(N)=O)c(Nc3ccc(F)cc3)c2cc1OC` came in with a logD of 2.82.

The compound `CN(Cc1ccc(Cl)cc1)C(=O)C1(N)CCN(c2ncnc3[nH]ccc23)CC1` displayed a logD of 2.8. This logD and that of the compound before are within 0.2 log units of each other.

(Values after ChEMBL document CHEMBL3301361, “Experimental in vitro DMPK and physicochemical data on a set of publicly disclosed compounds”.)
